# According to ChEMBL document CHEMBL1201862, “PubChem BioAssay data set” (2004):
# Active and inactive are the calls of the source.
# What was measured:
# [1] = biological target: T1, Microphthalmia-associated transcription factor (Homo sapiens, UniProt O75030); assay: TRPM1 promoter luciferase signal decrease, dose response, MITF inhibitor project, cell-based, SK-MEL-5, cherry-picked, set 3 (AID 493073); assay type: functional
# T1 sequence (O75030 whole entry): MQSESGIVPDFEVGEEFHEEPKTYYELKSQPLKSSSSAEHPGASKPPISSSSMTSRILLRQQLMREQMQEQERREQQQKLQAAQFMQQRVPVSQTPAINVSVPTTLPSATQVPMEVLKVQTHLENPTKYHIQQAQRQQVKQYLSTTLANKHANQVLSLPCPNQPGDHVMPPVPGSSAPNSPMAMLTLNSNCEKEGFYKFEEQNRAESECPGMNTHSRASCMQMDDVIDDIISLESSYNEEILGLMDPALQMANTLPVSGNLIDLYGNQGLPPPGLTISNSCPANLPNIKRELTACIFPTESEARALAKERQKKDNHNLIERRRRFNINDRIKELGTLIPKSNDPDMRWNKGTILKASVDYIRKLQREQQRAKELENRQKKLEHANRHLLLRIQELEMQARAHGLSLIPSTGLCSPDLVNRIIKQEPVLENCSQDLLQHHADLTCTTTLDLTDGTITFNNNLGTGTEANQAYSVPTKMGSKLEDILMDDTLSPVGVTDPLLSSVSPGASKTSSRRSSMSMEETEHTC
# [2] = biological target: T2, Small ubiquitin-related modifier 1 (Homo sapiens, UniProt P63165); assay: inhibitors of SUMO1 peptide binding, dose response, biochemical, fluorescence polarization, uHTS hits (AID 624382); assay type: functional; conditions: read-out: IC50_Mean
# T2 sequence (P63165 whole entry): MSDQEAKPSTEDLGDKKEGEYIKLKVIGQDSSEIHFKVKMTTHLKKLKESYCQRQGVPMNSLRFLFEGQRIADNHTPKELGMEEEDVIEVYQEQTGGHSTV
# [3] = biological target: T2, Small ubiquitin-related modifier 1; assay: inhibitors of SUMO1 partner interactions, dose response, biochemical, FRET (AID 624383); assay type: functional; conditions: read-out: IC50_Mean
# [4] = inhibitors of PGC1a acetylation in cells, dose response, cell-based, cherry-picked samples (AID 720514); assay type: functional;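 note: potency may reflect raised or lowered acetylation signal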
# Leucine aminopeptidase = biological target: T3, Leucine aminopeptidase (Plasmodium falciparum 3D7, UniProt Q8IL11); assay: P. falciparum M17LAP inhibitors, primary screen, biochemical, fluorogenic H-Leu-NHMec substrate, 1536-well (AID 1619); assay type: functional
# T3 sequence (Q8IL11 whole entry): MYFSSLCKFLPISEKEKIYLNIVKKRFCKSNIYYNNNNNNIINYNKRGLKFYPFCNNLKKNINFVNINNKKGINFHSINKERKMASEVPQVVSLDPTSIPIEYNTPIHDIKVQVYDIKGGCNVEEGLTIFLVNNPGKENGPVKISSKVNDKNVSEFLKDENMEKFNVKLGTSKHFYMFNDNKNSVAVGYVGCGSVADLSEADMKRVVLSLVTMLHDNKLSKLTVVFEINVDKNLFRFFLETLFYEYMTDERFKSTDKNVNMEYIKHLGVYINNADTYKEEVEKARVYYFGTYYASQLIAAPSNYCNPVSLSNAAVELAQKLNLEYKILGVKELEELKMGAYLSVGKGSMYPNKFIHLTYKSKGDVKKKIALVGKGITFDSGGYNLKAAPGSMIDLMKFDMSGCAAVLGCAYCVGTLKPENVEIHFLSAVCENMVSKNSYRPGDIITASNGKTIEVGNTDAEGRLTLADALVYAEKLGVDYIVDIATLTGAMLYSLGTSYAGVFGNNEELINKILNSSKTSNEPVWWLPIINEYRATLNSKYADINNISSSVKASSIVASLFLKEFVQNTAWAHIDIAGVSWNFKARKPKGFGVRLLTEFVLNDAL
# Cytochrome P450 2D6 = Cytochrome P450 2D6 (Homo sapiens, UniProt P10635);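 note: CYP2D6 member of a cytochrome P450 panel assay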
# Cytochrome P450 2D6, sequence (P10635 whole entry): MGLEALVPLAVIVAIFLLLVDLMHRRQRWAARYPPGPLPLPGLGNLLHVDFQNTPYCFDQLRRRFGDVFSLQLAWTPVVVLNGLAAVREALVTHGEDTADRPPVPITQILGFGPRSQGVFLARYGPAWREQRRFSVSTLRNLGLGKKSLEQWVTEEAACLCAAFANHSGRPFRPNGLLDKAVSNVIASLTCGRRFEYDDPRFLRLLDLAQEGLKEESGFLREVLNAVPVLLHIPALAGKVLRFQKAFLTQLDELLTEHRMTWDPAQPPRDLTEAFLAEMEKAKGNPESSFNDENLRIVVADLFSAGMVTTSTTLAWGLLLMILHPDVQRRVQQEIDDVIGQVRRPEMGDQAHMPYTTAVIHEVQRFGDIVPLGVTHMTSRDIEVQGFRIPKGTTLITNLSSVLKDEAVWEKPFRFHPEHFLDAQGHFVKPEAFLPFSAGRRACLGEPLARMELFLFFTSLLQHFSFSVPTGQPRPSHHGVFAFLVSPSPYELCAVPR
# Cytochrome P450 3A4 = Cytochrome P450 3A4 (Homo sapiens, UniProt P08684);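 note: CYP3A4 tested as one member of a cytochrome P450 panel screen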
# Cytochrome P450 3A4, sequence (P08684 whole entry): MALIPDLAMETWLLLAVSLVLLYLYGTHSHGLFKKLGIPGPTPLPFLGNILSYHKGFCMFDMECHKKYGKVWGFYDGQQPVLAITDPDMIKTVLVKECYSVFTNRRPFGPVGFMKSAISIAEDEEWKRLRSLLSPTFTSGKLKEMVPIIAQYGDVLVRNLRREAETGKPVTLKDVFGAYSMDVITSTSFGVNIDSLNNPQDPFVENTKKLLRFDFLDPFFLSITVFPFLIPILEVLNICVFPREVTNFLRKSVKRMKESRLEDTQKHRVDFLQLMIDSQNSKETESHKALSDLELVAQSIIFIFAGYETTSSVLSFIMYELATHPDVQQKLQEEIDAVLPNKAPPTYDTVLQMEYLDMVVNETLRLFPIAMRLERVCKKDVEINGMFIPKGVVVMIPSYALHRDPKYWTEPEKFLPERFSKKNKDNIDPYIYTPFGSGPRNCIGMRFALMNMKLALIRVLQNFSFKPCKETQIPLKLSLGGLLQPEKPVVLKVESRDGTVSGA
# Cytochrome P450 2C9 = Cytochrome P450 2C9 (Homo sapiens, UniProt P11712)
# Cytochrome P450 2C9, sequence (P11712 whole entry, the tested form may be a part): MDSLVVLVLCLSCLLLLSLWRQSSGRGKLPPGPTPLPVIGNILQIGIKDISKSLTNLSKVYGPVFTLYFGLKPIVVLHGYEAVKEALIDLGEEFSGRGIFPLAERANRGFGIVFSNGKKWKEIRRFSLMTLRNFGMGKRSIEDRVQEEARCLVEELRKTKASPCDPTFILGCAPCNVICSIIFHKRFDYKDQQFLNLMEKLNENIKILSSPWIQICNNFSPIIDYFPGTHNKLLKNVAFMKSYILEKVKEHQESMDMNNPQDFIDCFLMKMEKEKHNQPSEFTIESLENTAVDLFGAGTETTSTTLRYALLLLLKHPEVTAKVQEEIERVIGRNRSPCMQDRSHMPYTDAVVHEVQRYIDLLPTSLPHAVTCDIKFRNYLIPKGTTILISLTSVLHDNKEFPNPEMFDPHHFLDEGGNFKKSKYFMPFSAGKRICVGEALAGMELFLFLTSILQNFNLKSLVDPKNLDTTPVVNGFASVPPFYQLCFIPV
# [5] = biological target: T4, RNA-binding protein pos-1 (Caenorhabditis elegans, UniProt G5EF15); assay: inhibitors of POS-1/mex-3 RNA binding, dose response, biochemical, fluorescence polarization (AID 1964);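 note: purified POS-1 fused to maltose binding protein made in E. coli; potency of compounds blocking POS-1 binding to fluorescent RNA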
# T4 sequence (G5EF15 whole entry): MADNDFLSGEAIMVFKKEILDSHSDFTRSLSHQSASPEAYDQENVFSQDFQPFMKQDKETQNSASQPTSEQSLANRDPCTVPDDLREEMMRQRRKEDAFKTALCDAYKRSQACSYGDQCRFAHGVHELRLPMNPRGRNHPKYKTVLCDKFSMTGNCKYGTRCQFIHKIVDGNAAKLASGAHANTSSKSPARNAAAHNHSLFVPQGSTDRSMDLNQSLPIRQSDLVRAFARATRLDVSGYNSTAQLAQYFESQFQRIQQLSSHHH
# [6] = biological target: T5, Zinc finger protein mex-5 (Caenorhabditis elegans, UniProt Q9XUB2); assay: MEX-5/TCR-2 RNA interaction inhibitors, dose response, biochemical, C. elegans, fluorescence polarization (AID 1960)
# T5 sequence (Q9XUB2 whole entry): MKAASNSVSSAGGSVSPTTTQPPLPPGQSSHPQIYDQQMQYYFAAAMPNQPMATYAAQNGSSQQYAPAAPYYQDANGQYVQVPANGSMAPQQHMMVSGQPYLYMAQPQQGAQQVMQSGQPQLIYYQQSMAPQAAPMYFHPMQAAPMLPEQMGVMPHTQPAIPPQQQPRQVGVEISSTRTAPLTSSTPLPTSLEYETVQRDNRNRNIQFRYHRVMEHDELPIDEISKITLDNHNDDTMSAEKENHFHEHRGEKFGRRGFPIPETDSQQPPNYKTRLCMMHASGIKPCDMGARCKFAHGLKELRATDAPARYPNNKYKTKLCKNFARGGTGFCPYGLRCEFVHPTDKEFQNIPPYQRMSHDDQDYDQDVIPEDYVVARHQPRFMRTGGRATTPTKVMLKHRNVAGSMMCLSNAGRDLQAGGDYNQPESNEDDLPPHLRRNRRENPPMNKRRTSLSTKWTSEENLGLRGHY
# Large T antigen = Large T antigen (Simian virus 40, UniProt P03070); assay type: functional, Betapolyomavirus macacae;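 note: Confirmatory-stage PubChem screen for compounds that inhibit SV40 T antigen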
# Large T antigen, sequence (P03070 whole entry): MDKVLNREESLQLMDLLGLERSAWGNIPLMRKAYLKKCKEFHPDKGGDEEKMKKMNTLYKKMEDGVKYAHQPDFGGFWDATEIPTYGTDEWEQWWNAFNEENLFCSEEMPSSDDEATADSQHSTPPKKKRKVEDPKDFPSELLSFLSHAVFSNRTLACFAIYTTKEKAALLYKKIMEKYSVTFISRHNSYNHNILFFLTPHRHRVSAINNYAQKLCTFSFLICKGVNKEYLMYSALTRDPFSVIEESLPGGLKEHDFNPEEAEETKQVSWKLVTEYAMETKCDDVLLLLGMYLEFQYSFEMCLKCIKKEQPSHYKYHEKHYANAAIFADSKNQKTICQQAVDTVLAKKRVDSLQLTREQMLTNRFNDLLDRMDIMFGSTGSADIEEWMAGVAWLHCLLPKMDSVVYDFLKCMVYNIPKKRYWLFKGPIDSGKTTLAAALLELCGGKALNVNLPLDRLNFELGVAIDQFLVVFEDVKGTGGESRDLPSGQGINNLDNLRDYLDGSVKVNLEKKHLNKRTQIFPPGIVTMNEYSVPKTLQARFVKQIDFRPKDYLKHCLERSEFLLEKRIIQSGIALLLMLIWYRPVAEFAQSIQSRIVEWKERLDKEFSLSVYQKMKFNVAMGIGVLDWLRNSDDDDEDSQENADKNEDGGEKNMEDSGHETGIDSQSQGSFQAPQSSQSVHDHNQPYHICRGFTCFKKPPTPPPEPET
# [7] = biological target: T6, Replicative DNA helicase DnaB (Mycobacterium tuberculosis, UniProt P9WMR3); assay: DnaB intein splicing inhibitors, dose response, biochemical, cell-free fluorescence (AID 449749); assay type: functional
# T6 sequence (P9WMR3 whole entry): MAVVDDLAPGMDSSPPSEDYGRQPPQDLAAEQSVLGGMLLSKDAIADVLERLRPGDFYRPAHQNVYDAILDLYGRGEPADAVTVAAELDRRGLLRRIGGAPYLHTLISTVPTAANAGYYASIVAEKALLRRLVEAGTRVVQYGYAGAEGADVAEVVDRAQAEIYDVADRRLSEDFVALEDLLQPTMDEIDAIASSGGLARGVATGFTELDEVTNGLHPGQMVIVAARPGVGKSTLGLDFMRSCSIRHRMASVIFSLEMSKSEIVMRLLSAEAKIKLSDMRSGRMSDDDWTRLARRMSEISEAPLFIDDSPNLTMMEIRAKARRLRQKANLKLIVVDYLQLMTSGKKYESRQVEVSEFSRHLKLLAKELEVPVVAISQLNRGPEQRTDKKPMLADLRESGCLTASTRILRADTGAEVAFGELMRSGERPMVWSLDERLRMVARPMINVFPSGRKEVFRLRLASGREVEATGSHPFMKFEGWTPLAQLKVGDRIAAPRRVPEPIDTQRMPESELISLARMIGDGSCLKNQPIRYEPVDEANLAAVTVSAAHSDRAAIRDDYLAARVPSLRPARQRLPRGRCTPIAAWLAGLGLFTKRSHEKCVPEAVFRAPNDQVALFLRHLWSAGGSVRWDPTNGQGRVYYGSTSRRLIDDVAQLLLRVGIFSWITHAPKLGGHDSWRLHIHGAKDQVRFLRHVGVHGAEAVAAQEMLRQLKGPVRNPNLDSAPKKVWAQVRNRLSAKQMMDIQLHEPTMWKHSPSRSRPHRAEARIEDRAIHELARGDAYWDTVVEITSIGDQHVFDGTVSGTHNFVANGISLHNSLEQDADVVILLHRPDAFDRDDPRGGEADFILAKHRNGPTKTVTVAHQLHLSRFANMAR
# Protein RecA = biological target: T7, Protein RecA (Mycobacterium tuberculosis, UniProt P9WHJ3); assay: Fluorescence Cell-Free Homogeneous Dose Retest to Identify Inhibitors of RecA-Intein Splicing Activity. [Related pubchem assays (depositor defined):AID2097, AID2223, AID489010, AID492950]; assay type: functional
# T7 sequence (P9WHJ3 whole entry): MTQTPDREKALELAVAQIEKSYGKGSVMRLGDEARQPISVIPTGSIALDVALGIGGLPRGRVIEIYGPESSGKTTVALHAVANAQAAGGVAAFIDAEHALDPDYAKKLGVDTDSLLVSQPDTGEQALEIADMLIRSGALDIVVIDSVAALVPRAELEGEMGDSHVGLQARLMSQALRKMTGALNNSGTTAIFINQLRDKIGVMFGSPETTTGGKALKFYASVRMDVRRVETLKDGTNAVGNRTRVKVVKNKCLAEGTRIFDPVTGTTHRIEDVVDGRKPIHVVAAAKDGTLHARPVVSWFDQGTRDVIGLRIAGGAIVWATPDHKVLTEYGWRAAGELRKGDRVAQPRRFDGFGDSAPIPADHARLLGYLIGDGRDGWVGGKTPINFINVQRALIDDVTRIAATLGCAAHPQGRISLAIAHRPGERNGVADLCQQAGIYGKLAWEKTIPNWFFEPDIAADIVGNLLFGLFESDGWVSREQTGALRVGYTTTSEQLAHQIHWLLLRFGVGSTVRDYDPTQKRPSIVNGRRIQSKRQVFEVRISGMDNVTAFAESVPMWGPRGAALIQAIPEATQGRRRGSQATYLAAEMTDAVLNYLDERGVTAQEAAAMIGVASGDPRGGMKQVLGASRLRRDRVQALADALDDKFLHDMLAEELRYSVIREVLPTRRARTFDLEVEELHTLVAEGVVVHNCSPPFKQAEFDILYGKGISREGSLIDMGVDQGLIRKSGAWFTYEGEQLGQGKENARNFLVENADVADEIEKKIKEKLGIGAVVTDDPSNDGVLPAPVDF
# [8] = LGR2 antagonists, dose response, cell-based, HEK293, CRE-luciferase reporter, cherry pick, set 2 (AID 743343); assay type: functional;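 note: transfected cells were stimulated with diluted bursicon conditioned medium after compound addition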
# [9] = MC4R antagonists, dose response, counter-screen for LGR2 antagonist project, cell-based, plate reader, cherry pick (AID 743444); assay type: functional;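 note: transfected HEK 293 cells stimulated with alpha-MSH peptide; potency of inhibitors of the alpha-MSH evoked signal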
# Cytochrome P450 2C19 = Cytochrome P450 2C19 (Homo sapiens, UniProt P33261); assay: Cytochrome panel assay with activity outcomes. Panel member name: p450-cyp2c19 Compounds with AC50 equal or less than 10 uM are considered active; assay type: functional; conditions: read-out: AC50
# Cytochrome P450 2C19, sequence (P33261 whole entry): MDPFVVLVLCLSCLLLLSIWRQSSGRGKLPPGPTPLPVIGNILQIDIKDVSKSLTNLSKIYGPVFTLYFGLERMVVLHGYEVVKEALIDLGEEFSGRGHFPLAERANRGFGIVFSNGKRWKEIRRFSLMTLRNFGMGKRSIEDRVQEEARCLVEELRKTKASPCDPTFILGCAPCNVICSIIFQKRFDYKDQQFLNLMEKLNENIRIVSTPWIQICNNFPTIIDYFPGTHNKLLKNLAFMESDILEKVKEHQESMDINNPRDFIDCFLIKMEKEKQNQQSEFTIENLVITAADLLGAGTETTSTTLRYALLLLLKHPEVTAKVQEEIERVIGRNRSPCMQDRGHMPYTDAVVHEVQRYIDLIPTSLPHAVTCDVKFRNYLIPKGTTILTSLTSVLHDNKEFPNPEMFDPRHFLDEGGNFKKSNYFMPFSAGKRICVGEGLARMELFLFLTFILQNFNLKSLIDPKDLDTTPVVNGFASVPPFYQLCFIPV
compound,measurement,setting,value
O=C(NCc1ccccc1)C(=O)Nc1cccc(C(=O)O)c1,AC50,[1],4.85 µM (active)
CCC(CO)Oc1cc(NC(=O)c2ccccc2F)c2ncn(C(C)C)c2c1 (stereo not given),IC50,[2],> 66.6 µM (inactive)
same,IC50,[3],12.2 µM (active)
COc1cc(CN2C[C@@H]3N[C@H](C2)[C@H]3c2ccc(-c3cccc(OC)c3)cc2)cc(OC)c1,AC50,[4],24.5 µM (active)
O=C(Nc1c(C(=O)O)oc2ccc(Br)cc12)c1ccccc1,IC50,Leucine aminopeptidase,5.42 µM (active)
COc1cccc2c(=O)n(CC(=O)N3CCCCCC3)ccc12,IC50,Leucine aminopeptidase,17.6 µM (active)
CC(=O)Nc1ccc(S(=O)(=O)N2CCn3cccc3C2C)cc1 (stereo not given),AC50,[1],28.6 µM (active)
CCC(=O)Nc1cc2nn(-c3ccc(C)cc3)nc2cc1C,AC50,[1],4.15 µM (active)
COc1ccccc1NC(=O)CC1COc2ccccc2O1 (stereo not given),IC50,Leucine aminopeptidase,5.29 µM (active)
same,AC50,Cytochrome P450 2D6,12.6 µM (inconclusive)
same,AC50,Cytochrome P450 3A4,14.1 µM (inconclusive)
same,AC50,Cytochrome P450 2C9,5.62 µM (inconclusive)
O=C(O)C1CCCCC1C(=O)Nc1ccc2c(c1)OCCO2 (stereo not given),IC50,Leucine aminopeptidase,32.9 µM (active)
COc1cc(C2C(C#N)=C(N)Oc3[nH]nc(-c4cccnc4)c32)cc(Br)c1O (stereo not given),EC50,[5],> 300 µM (not active)
same,EC50,[6],> 300 µM (not active)
same,IC50,Large T antigen,57 µM (active)
same,AC50,[7],5.65 µM (active)
same,EC50,Protein RecA,2.06 µM (active)
Cc1cc(C(=O)Nc2ccc(N3CCCCC3)cc2)no1,AC50,[8],13.3 µM (active)
same,AC50,[9],13.1 µM (active)
COc1cc(SC)ccc1C(=O)Nc1ccc(Br)cn1,AC50,[1],7.36 µM (active)
CCn1c(C)c(C)c2cc(C(=O)NCCN3CCOCC3)ccc21,AC50,[4],25.5 µM (active)
O=C(N/N=C/c1ccncc1)c1cc2c(ccc3ccccc32)o1,AC50,Cytochrome P450 2C19,8.91 µM (inconclusive)
same,IC50,[2],> 66.6 µM (inactive)
same,IC50,[3],100 µM (inactive)
same,AC50,Cytochrome P450 2C9,0.794 µM (inconclusive)
C[C@@H]1CN([C@@H](C)CO)S(=O)(=O)c2ccc(C#CC3CCCCC3)cc2O[C@H]1CN(C)Cc1cccnc1,AC50,[4],15.1 µM (active)
CC(CC(=O)OCC(=O)Nc1ccc2[nH]c(O)nc2c1)c1ccccc1 (stereo not given),IC50,[2],> 66.6 µM (inactive)
same,IC50,[3],21 µM (inactive)
O=C(O)C1CCCCC1C(=O)Nc1cccc(Cl)c1Cl (stereo not given),IC50,Leucine aminopeptidase,13.5 µM (active)
